The values that follow are results of earlier work, collected in US8652545B2, “Composition of a liquid dietary supplement to treat symptoms of autism spectrum disorders in children” (Reverta Health Solutions LLC, priority 2008, dated 2014).

The conditions of data set [1]: in vivo.
The conditions of data set [2]: in vivo. The source holds these as a separate data set.
The subject of data set [3] is individuals diagnosed with autism. The following applies: high doses, given with magnesium; Nye and Brice (2005).

`CCNC(=O)CC[C@H](N)C(=O)O` [Theanine]: the “crossing of the blood-brain barrier” value in data set [1] is recorded as “easily crosses the blood-brain barrier”. In data set [2], the sleep entry is on record as “promote a more restful deep sleep” and the stress result was “reduce stress”.
Take `Cc1ncc(CO)c(CO)c1O.Cl` [vitamin B6, Vitamin B6]: in data set [3], the “benefit in individuals diagnosed with autism” value is “extremely beneficial”.
